According to US20150132339A1, “ADJUVANTED FORMULATIONS OF STR[…]” (NOVARTIS AG, priority 2012, published 2015):

Assays:
Assay type in all cases: physicochemical
[1] = Adsorption of compound K2 to aluminium hydroxide adjuvant (Al—H); settings: Al—H 2 mg/ml
Experimental: (§1) To determine whether the K2 remains adsorbed to Al—H, compositions were prepared as above.

[2] = Degradation after formulation; settings: RrgB321 / K2 / Al—H formulation
Experimental: (§2) The combination of RrgB321 used in this study corresponds to a fusion between RrgB sequences from (3) Taiwan-23F (2) Finland 6B-12 (1) TIGR4, and thus comprises pili of clades III, II and I. Details of RrgB321 are provided in references 235 and 236. RrgB321 was expressed with a His tag. The final RrgB321 vaccine composition contains antigen (0.4 mg/ml), compound K2 (2 mg/ml), Al—H (2 mg/ml), NaCl (9 mg/ml), histidine buffer (10 mM, pH 6.5), formulation volume: 0.05 ml (in water).
as §1

[3] = Adsorption of RrgB321 to Al—H (SDS-PAGE)
Experimental: as §2, §1

Compound | compound K2 adsorbed to the Al—H ([1]; at all strengths) [%] | K2 remains adsorbed to Al—H ([1]; HPLC, RrgB321 composition) | degradation patterns after formulation [2] | RrgB321 adsorption to Al—H ([3]; in the absence of K2) [%] | RrgB321 adsorption to Al—H ([3]; in the presence of K2)
Cc1cc(OCCOCCOCCP(=O)(O)O)ccc1CCc1cnc2c(N)nc3cc(CCC(=O)O)ccc3c2c1 [compound K2, 3-(5-amino-2-(2-methyl-4-(2-(2-(2-phosphonoethoxy)ethoxy)ethoxy)phenethyl)benzo[f]-[1,7]naphthyridin-8-yl)propanoic acid] | > 95 | at least 97% | Neither antigen nor K2 showed detectable degradation patterns | – | –
RrgB321: fusion between RrgB sequences from Taiwan-23F, Finland 6B-12 and TIGR4 (clades III, II, I), e.g. SEQ ID NO: 250, His tag | – | – | Neither antigen nor K2 showed detectable degradation patterns | > 95 | approximately 50%
